PubChem BioAssay (NCI)
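Abbreviation: GI50, concentration required for 50% inhibition of growth. TGI: concentration producing complete growth inhibition.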

Key:
Assay in all cases: NCI anticancer screen, dose series, 384-well format
HCC-2998 colon = tested on: HCC-2998 colon
MDA-MB-435 melanoma = tested on: MDA-MB-435 melanoma
U251 glioblastoma = tested on: U251 glioblastoma
SNB-75 CNS = tested on: SNB-75 CNS
MOLT-4 leukemia = tested on: MOLT-4 leukemia
SK-MEL-2 melanoma = tested on: SK-MEL-2 melanoma
NCI-H460 NSCLC = tested on: NCI-H460 NSCLC
A498 renal = tested on: A498 renal
UACC-257 melanoma = tested on: UACC-257 melanoma
CAKI-1 renal = tested on: CAKI-1 renal
IGROV1 ovarian = tested on: IGROV1 ovarian
A549 NSCLC = tested on: A549 NSCLC
MALME-3M melanoma = tested on: MALME-3M melanoma
CCRF-CEM leukemia = tested on: CCRF-CEM leukemia
SF-268 CNS = tested on: SF-268 CNS
HOP-92 NSCLC = tested on: HOP-92 NSCLC
TK-10 renal = tested on: TK-10 renal
HT29 colon = tested on: HT29 colon
EKVX NSCLC = tested on: EKVX NSCLC
UACC-62 melanoma = tested on: UACC-62 melanoma
SNB-19 CNS = tested on: SNB-19 CNS
M14 melanoma = tested on: M14 melanoma
NCI-H522 lung = tested on: NCI-H522 lung
K-562 leukemia = tested on: K-562 leukemia
SF-295 CNS = tested on: SF-295 CNS
SK-OV-3 ovarian = tested on: SK-OV-3 ovarian
HCT-15 colon = tested on: HCT-15 colon
NCI-H226 lung = tested on: NCI-H226 lung
OVCAR-4 ovarian = tested on: OVCAR-4 ovarian
DU-145 prostate = tested on: DU-145 prostate
SF-539 CNS = tested on: SF-539 CNS
SK-MEL-5 melanoma = tested on: SK-MEL-5 melanoma
BT-549 breast = tested on: BT-549 breast
NCI-H322M lung = tested on: NCI-H322M lung
ACHN renal = tested on: ACHN renal
OVCAR-8 ovarian = tested on: OVCAR-8 ovarian
PC-3 prostate = tested on: PC-3 prostate
HOP-62 NSCLC = tested on: HOP-62 NSCLC
MCF7 breast = tested on: MCF7 breast
OVCAR-3 ovarian = tested on: OVCAR-3 ovarian
786-0 renal = tested on: 786-0 renal
HS 578T breast = tested on: HS 578T breast
NCI/ADR-RES ovarian = tested on: NCI/ADR-RES ovarian
SN12C renal = tested on: SN12C renal
MDA-MB-468 breast = tested on: MDA-MB-468 breast
HL-60(TB) leukemia = tested on: HL-60(TB) leukemia
HCT-116 colon = tested on: HCT-116 colon
NCI-H23 lung = tested on: NCI-H23 lung
LOX IMVI melanoma = tested on: LOX IMVI melanoma
RXF 393 renal = tested on: RXF 393 renal
SW-620 colon = tested on: SW-620 colon
SK-MEL-28 melanoma = tested on: SK-MEL-28 melanoma
RPMI-8226 leukemia = tested on: RPMI-8226 leukemia
COLO 205 colon = tested on: COLO 205 colon
KM12 colon = tested on: KM12 colon

## CC(C)NC(=O)OCc1c(COC(=O)NC(C)C)c(-c2ccc(Cl)c(Cl)c2)n2c1SCC2
HCC-2998 colon
  GI50: 0.687 µM
  TGI: 14.7 µM
MDA-MB-435 melanoma
  GI50: 13 µM
  TGI: 25.8 µM
U251 glioblastoma
  GI50: 5.16 µM
  TGI: 18.4 µM
SNB-75 CNS
  GI50: 2.27 µM
  TGI: 12.7 µM
MOLT-4 leukemia
  GI50: 1.1 µM
  TGI: 2.3 µM
SK-MEL-2 melanoma
  GI50: 1.83 µM
  TGI: 4.49 µM
NCI-H460 NSCLC
  GI50: 2.56 µM
  TGI: 11.4 µM
A498 renal
  GI50: 0.386 µM
  TGI: 1.76 µM
UACC-257 melanoma
  GI50: 10.2 µM
  TGI: 22.4 µM
CAKI-1 renal
  GI50: 1.48 µM
  TGI: 3.44 µM
IGROV1 ovarian
  GI50: 1.25 µM
  TGI: 4.55 µM
A549 NSCLC
  GI50: 10.2 µM
  TGI: 23.9 µM
MALME-3M melanoma
  GI50: 5.06 µM
  TGI: 17.8 µM
CCRF-CEM leukemia
  GI50: 2.07 µM
  TGI: 4.95 µM
SF-268 CNS
  GI50: 3.18 µM
  TGI: 10.3 µM
HOP-92 NSCLC
  GI50: 2.58 µM
  TGI: 11.4 µM
TK-10 renal
  GI50: 1.63 µM
  TGI: 6.15 µM
HT29 colon
  GI50: 10.4 µM
  TGI: 25 µM
EKVX NSCLC
  GI50: 13.1 µM
  TGI: 26.7 µM
UACC-62 melanoma
  GI50: 1.68 µM
  TGI: 4.98 µM
SNB-19 CNS
  GI50: 9.07 µM
  TGI: 27.7 µM
M14 melanoma
  GI50: 3.75 µM
  TGI: 14.1 µM
NCI-H522 lung
  GI50: 2.09 µM
  TGI: 13.8 µM
K-562 leukemia
  GI50: 10.3 µM
  TGI: 22.6 µM
SF-295 CNS
  GI50: 3.18 µM
  TGI: 10.1 µM
SK-OV-3 ovarian
  GI50: 3.26 µM
  TGI: 11.4 µM
HCT-15 colon
  GI50: 5.97 µM
  TGI: 19.8 µM
NCI-H226 lung
  GI50: 0.85 µM
  TGI: 2.35 µM
OVCAR-4 ovarian
  GI50: 3.3 µM
  TGI: 17.5 µM
DU-145 prostate
  GI50: 5.54 µM
  TGI: 20.7 µM
SF-539 CNS
  GI50: 5.16 µM
  TGI: 18.7 µM
SK-MEL-5 melanoma
  GI50: 4.33 µM
  TGI: 17.8 µM
BT-549 breast
  GI50: 3.92 µM
  TGI: 15.3 µM
NCI-H322M lung
  GI50: 7.6 µM
  TGI: 21.7 µM
ACHN renal
  GI50: 2.31 µM
  TGI: 7.85 µM
OVCAR-8 ovarian
  GI50: 5.97 µM
  TGI: 19.1 µM
PC-3 prostate
  GI50: 10.8 µM
  TGI: 25.5 µM
HOP-62 NSCLC
  GI50: 1.89 µM
  TGI: 4.66 µM
MCF7 breast
  GI50: 4.21 µM
  TGI: 27 µM
OVCAR-3 ovarian
  GI50: 2.99 µM
  TGI: 14.1 µM
786-0 renal
  GI50: 4.31 µM
  TGI: 15.8 µM
HS 578T breast
  GI50: 4.85 µM
  TGI: 17.3 µM
NCI/ADR-RES ovarian
  GI50: 3 µM
  TGI: 13.2 µM
SN12C renal
  GI50: 3.88 µM
  TGI: 14.1 µM
MDA-MB-468 breast
  GI50: 0.0344 µM
  TGI: 0.936 µM
HL-60(TB) leukemia
  GI50: 1.27 µM
  TGI: 2.58 µM
HCT-116 colon
  GI50: 4 µM
  TGI: 19.8 µM
NCI-H23 lung
  GI50: 1.83 µM
  TGI: 4.26 µM
LOX IMVI melanoma
  GI50: 1.84 µM
  TGI: 13.6 µM
RXF 393 renal
  GI50: 2.64 µM
  TGI: 10.5 µM
SW-620 colon
  GI50: 5.81 µM
  TGI: 19.6 µM
SK-MEL-28 melanoma
  GI50: 12.7 µM
  TGI: 26.1 µM
RPMI-8226 leukemia
  GI50: 1.79 µM
  TGI: 5.03 µM
COLO 205 colon
  GI50: 8.39 µM
  TGI: 21.7 µM
KM12 colon
  GI50: 7.21 µM
  TGI: 21.6 µM
